In publication PMC4956231, “Molecular Mechanisms for Drug Hypersensitivity Induced by the Malaria Parasite’s Chloroquine Resistance Transporter” (PLoS Pathogens, 2016):
Read-outs that look alike come from different tables or passages of the source. Marks after values point to notes of the source that are not given here.

Legend:
[1] = system: parasites carrying isoforms of PfCRT^CQR; conditions: in vitro studies, cited from earlier work
[2] = system: C=C[C@H]1C[N@@]2CC[C@H]1C[C@@H]2[C@@H](O)c1ccnc2ccc(OC)cc12; assay: cells, lysate or membranes; conditions: other: transport via 76I-PfCRT^K1 in oocytes; CQ pH 6.0, quinine and quinidine pH 5.0; 27.5 °C
[3] = system: C=C[C@H]1C[N@@]2CC[C@H]1C[C@H]2[C@H](O)c1ccnc2ccc(OC)cc12; assay: cells, lysate or membranes; conditions: other: transport via 76I-PfCRT^K1 in oocytes; CQ pH 6.0, quinine and quinidine pH 5.0; 27.5 °C
PfCRT^K1 [4] = assay: Inhibition of [3H]amantadine transport in oocytes; format: cell-based, Plasmodium falciparum; conditions: via PfCRT^K1 in oocytes
Description: (§1) For each treatment, 10 oocytes were transferred to a 5 mL polystyrene round bottom tube (Falcon) and washed twice with 3.5 mL of ND96 buffer, with the residual buffer removed by pipette. […] The assay was terminated by removing the reaction buffer with a pipette and washing the oocytes twice with 3.5 mL of ice-cold ND96 buffer. Each oocyte was transferred to a separate well of a white 96-well plate (NUNC or PerkinElmer), incubated overnight at room temperature in 30 μL of 10% SDS, and mixed on an orbital shaker the following day for approximately 5 min. The lysed oocyte was then combined with 150 μL of MicroScint-40 microscintillant (PerkinElmer), the plate covered with a TopSeal-A (PerkinElmer), and the radioactivity measured with a PerkinElmer MicroBeta^2 microplate liquid scintillation analyzer.

76I,369F-PfCRT^K1 = 76I,369F-PfCRT^K1 (Plasmodium falciparum, UniProt Q9N623, A220S/K76I/M74I/N326S/N75E/Q271E/R371I/V369F); assay: Inhibition of [3H]amantadine transport in oocytes; format: cell-based; conditions: via 76I,369F-PfCRT^K1 in oocytes
Description: as §1

76I-PfCRT^K1 [5] = biological target: T1, 76I-PfCRT^K1 (Plasmodium falciparum, UniProt Q9N623, A220S/K76I/M74I/N326S/N75E/Q271E/R371I); assay: Inhibition of [3H]amantadine transport in oocytes; format: cell-based; conditions: via 76I-PfCRT^K1 in oocytes
Description: as §1

PfCRT^CQR = conditions: oocyte system, inhibitor of PfCRT^CQR; cited from earlier work
PfCRT^Dd2 [6] = biological target: PfCRT^Dd2 (Plasmodium falciparum, UniProt Q9N623, A220S/I356T/K76T/M74I/N326S/N75E/Q271E/R371I); format: cell-based; conditions: extracellular concentrations of 1 and 2 mM; pH 5.5; 15 μM unlabeled CQ
Description: The uptake of [^3H]CQ (0.25 μM) was measured in the absence (solvent control) or presence of the test compounds (extracellular concentrations of 1 and 2 mM). The assays were conducted at pH 5.5 and in the presence of 15 μM unlabeled CQ.

[7] = system: noninjected oocytes and oocytes expressing PfCRT variants or PfNT1; assay: Trans-stimulation of [3H]CQ uptake by microinjected compound, all oocyte types; format: cell-based, Plasmodium falciparum; conditions: any of the oocyte types, estimated intracellular concentrations 5 and 10 mM
Description: A subset of experiments measured the ability of unlabeled amantadine to trans-stimulate the uptake of [^3H]CQ into the oocyte. Immediately prior to the commencement of the experiment, the oocytes (days 3–4 post-injection of the cRNA) were microinjected with either amantadine (estimated intracellular concentrations of 1, 2.5, 5, 10, 15, or 20 mM) or a control treatment (buffer, spermine, or histidine; the estimated intracellular concentrations of spermine and histidine were 5 and 10 mM). The volume injected was 50 nL and the intracellular concentrations were calculated using previous estimates of the volume of stage V-VI oocytes (~400 nL [77]). The resealed oocytes were then incubated at 16–18°C in OR^2+ buffer for approximately 5 min and the influx of [^3H]CQ was measured as described above. […] The Michaelis-Menten equation was then fitted to the data to derive the kinetic parameters for the trans-stimulation of [^3H]CQ transport by amantadine.

PfCRT^Dd2 [8] = assay: [3H]drug transport into Xenopus oocytes expressing PfCRT; format: cell-based, Plasmodium falciparum; conditions: oocytes expressing PfCRT^Dd2; [3H]drug […], pH 5.0, 1 μM unlabeled drug (S4 Fig)
Description: as §1

PfCRT^K1 [9] = assay: as above; format: cell-based, Plasmodium falciparum; conditions: for rate of uptake mediated by PfCRT^K1, greater than that measured for PfCRT^Dd2: S4 Fig; for rate of uptake: oocytes expressing PfCRT^K1, [3H]drug […], pH 5.0, 1 μM unlabeled drug (Fig 2B, C); for rate of transport, times lower than that measured for CQ: total drug 1.25 μM vs ~12-fold higher total CQ
Description: as §1

76N-PfCRT^K1 = assay: as above; format: cell-based, Plasmodium falciparum; conditions: transport via 76N-PfCRT^K1 in oocytes, CQ pH 6.0, quinine and quinidine pH 5.0; for Km: read-out: Apparent Km
Description: as §1
Note that noninjected oocytes and oocytes expressing PfCRT^3D7 take up [^3H]CQ to similar (low) levels via simple diffusion of the neutral species of the drug; this represents the ‘background’ level of [^3H]CQ accumulation in oocytes (refer to Martin et al. for full data and discussion).

76I-PfCRT^K1 [10] = biological target: T1, 76I-PfCRT^K1; format: cell-based; conditions: for Apparent Vmax: transport via 76I-PfCRT^K1 in oocytes, CQ pH 6.0, quinine and quinidine pH 5.0
Description: as §1

noninjected oocytes = assay: [3H]drug uptake into noninjected oocytes (background accumulation); format: cell-based, Xenopus laevis; conditions: [3H]drug […]
Description: as §1

[11] = artemisinin and/or dihydroartemisinin
[12] = transport via PfCRT^K1 in oocytes, CQ pH 6.0, quinine and quinidine pH 5.0
[13] = pH 5.0, 1 μM unlabeled drug (Fig 2B, C)
[14] = pH 5.0, 1 μM unlabeled drug (S4 Fig)

T1 sequence (Q9N623 whole entry A220S/K76I/M74I/N326S/N75E/Q271E/R371I): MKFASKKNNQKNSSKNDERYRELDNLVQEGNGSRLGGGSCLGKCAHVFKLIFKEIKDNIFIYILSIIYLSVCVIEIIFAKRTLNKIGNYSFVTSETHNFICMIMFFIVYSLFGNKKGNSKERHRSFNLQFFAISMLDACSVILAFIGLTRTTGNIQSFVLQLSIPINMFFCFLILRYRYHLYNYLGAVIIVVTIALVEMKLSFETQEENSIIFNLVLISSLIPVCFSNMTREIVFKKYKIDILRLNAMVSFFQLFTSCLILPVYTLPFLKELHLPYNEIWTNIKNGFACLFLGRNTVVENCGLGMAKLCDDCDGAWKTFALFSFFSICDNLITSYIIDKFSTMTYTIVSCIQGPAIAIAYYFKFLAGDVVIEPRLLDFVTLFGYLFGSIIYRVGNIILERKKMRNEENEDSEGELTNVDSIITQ
Sequence of 76I,369F-PfCRT^K1 (Q9N623 whole entry A220S/K76I/M74I/N326S/N75E/Q271E/R371I/V369F): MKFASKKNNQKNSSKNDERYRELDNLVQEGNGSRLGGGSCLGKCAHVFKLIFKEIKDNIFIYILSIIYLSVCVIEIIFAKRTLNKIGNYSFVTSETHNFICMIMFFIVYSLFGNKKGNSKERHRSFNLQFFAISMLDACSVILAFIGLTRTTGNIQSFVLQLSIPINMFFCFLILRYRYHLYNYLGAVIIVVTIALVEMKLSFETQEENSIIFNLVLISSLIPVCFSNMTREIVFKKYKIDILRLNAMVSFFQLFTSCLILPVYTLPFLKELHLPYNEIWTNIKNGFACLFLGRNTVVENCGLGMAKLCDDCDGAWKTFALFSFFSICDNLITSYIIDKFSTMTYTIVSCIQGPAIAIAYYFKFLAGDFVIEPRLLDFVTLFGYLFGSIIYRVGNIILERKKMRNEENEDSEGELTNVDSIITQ
Sequence of PfCRT^Dd2 (Plasmodium falciparum, UniProt Q9N623, A220S/I356T/K76T/M74I/N326S/N75E/Q271E/R371I) (Q9N623 whole entry M74I/N75E/K76T/A220S/Q271E/N326S/I356T/R371I): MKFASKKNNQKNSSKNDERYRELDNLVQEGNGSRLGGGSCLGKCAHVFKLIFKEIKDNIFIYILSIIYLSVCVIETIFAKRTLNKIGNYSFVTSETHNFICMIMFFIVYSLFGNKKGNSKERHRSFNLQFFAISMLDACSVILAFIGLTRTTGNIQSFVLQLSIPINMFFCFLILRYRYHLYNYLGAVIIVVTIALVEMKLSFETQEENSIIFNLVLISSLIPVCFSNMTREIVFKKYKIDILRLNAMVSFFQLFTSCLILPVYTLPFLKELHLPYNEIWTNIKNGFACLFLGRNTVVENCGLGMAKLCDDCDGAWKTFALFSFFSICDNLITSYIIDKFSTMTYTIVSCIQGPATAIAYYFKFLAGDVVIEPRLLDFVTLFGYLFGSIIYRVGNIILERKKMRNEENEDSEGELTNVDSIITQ

C[C@@H]1CC[C@H]2[C@@H](C)C(=O)O[C@@H]3O[C@@]4(C)CC[C@@H]1[C@]32OO4 [artemisinin]
decrease in the IC50 induced by isoforms of PfCRT^CQR (hypersensitivity) [1, 11]: 1.9–3.7 fold

76I-PfCRT^K1 (Plasmodium falciparum; A220S/K76I/M74I/N326S/N75E/Q271E/R371I)
Km [2]: 24.1 ± 3.0^f (6) μM | Km [3]: 0.42 ± 0.04^c,f (4) μM

CC(C)(C)NC(=O)[C@@H]1C[C@@H]2CCCC[C@@H]2CN1C[C@@H](O)[C@H](Cc1ccccc1)NC(=O)[C@H](CC(N)=O)NC(=O)c1ccc2ccccc2n1 [saquinavir]
effect on [3H]amantadine transport (PfCRT^K1 [4]): inhibited | effect on [3H]amantadine transport (76I,369F-PfCRT^K1): inhibited | effect on [3H]amantadine transport (76I-PfCRT^K1 [5]): inhibited | IC50 (PfCRT^CQR): 13 ± 1 µM

NCCCNCCCCNCCCN [spermine]
effect on accumulation of [3H]CQ in oocytes expressing PfCRT (PfCRT^Dd2 [6]): do not inhibit | effect on [3H]CQ uptake (trans-stimulation) [7]: neither spermine nor histidine altered

C=C[C@H]1C[N@@]2CC[C@H]1C[C@@H]2[C@@H](O)c1ccnc2ccc(OC)cc12 [quinidine]
rate of uptake (PfCRT^Dd2 [8]): 0.30 ± 0.07 pmol per oocyte/h | rate of uptake mediated by PfCRT^K1, greater than that measured for PfCRT^Dd2 (PfCRT^K1 [9]): 17–35% | rate of uptake (PfCRT^K1 [9]): 0.38 ± 0.08 pmol per oocyte/h | rate of transport, times lower than that measured for CQ (PfCRT^K1 [9]): 10–15 times | Apparent Vmax (PfCRT^K1 [9]; [12]): 24.4 ± 1.6 (7) pmol per oocyte/h | Km (PfCRT^K1 [9]; transport via PfCRT^K1 in oocytes, CQ pH 6.0, quinine and quinidine pH 5.0, 76K-PfCRT^K1 control subtracted, read-out: Apparent Km): 84 ± 1 µM | Apparent Vmax (76N-PfCRT^K1): 14.1 ± 0.9^e,g (6) pmol per oocyte/h | Km (76N-PfCRT^K1): 94 ± 4 µM | Apparent Vmax (76I-PfCRT^K1 [10]): 7.2 ± 0.5^e,g (6) pmol per oocyte/h | rate of uptake (noninjected oocytes; [13]): 0.063 ± 0.010 pmol per oocyte/h | rate of uptake (noninjected oocytes; [14]): 0.05 ± 0.01 pmol per oocyte/h

CCCCN(CCCC)CC(O)c1cc(Cl)cc2c1-c1ccc(Cl)cc1/C2=C/c1ccc(Cl)cc1 (centres unmarked) [lumefantrine]
decrease in the IC50 induced by isoforms of PfCRT^CQR (hypersensitivity) [1]: 1.5–3.2 fold

C[C@H]1[C@@H](O)O[C@@H]2O[C@@]3(C)CC[C@H]4[C@H](C)CC[C@@H]1[C@@]24OO3 [dihydroartemisinin]
decrease in the IC50 induced by isoforms of PfCRT^CQR (hypersensitivity) [1, 11]: 1.9–3.7 fold

C=C[C@H]1C[N@@]2CC[C@H]1C[C@H]2[C@H](O)c1ccnc2ccc(OC)cc12 [quinine]
rate of uptake (PfCRT^Dd2 [8]): 0.44 ± 0.04 pmol per oocyte/h | rate of uptake mediated by PfCRT^K1, greater than that measured for PfCRT^Dd2 (PfCRT^K1 [9]): 17–35% | rate of uptake (PfCRT^K1 [9]): 0.55 ± 0.03 pmol per oocyte/h | rate of transport, times lower than that measured for CQ (PfCRT^K1 [9]): 10–15 times | Apparent Vmax (PfCRT^K1 [9]; [12]): 10.3 ± 0.8 (7) pmol per oocyte/h | Apparent Vmax (76N-PfCRT^K1): 13.0 ± 1.0^d,f (6) pmol per oocyte/h | Km (76N-PfCRT^K1): 41 ± 2.6 µM | Vmax of 76I-PfCRT^K1, times lower than the value obtained for PfCRT^K1 (76I-PfCRT^K1 [10]; quinine transport): ~ 115 times | Apparent Vmax (76I-PfCRT^K1 [10]): 0.09 ± 0.01^c,f (4) pmol per oocyte/h | rate of uptake (noninjected oocytes; [13]): 0.10 ± 0.01 pmol per oocyte/h | rate of uptake (noninjected oocytes; [14]): 0.10 ± 0.01 pmol per oocyte/h

N[C@@H](Cc1c[nH]cn1)C(=O)O [histidine]
effect on accumulation of [3H]CQ in oocytes expressing PfCRT (PfCRT^Dd2 [6]): do not inhibit | effect on [3H]CQ uptake (trans-stimulation) [7]: neither spermine nor histidine altered

COc1ccc(CCN(C)CCCC(C#N)(c2ccc(OC)c(OC)c2)C(C)C)cc1OC (centres unmarked) [verapamil]
effect on [3H]amantadine transport (PfCRT^K1 [4]): inhibited | effect on [3H]amantadine transport (76I,369F-PfCRT^K1): inhibited | effect on [3H]amantadine transport (76I-PfCRT^K1 [5]): inhibited
